Here are results for six molecules from patent US20180291335A1, “MODIFIED POLYNUCLEOTIDES FOR ALTERING CELL PHENOTYPE” (ModernaTX, Inc., priority 2012, published 2018).

The subject of data set [1] is interferon-alpha (IFN-alpha). Briefly: 2′Fluoro chemistries in PBMC: IFN-alpha production by ELISA. The data set is classed as cell-based, human. The conditions noted are these: G-CSF modified mRNA.
Data set [2] has as its system tumor necrosis factor-alpha (TNF-alpha). Briefly: 2′Fluoro chemistries in PBMC: TNF-alpha production by ELISA. The conditions noted are these: G-CSF modified mRNA. The class given is cell-based, human. On the technique in general: In an ELISA, binding on a coated surface is turned into a signal by an enzyme label.
In data set [3] the test system is HeLa cells. Briefly: Luciferase in HeLa cells using a combination of modifications. The class given is cell-based, human. The conditions noted are these: 83 ng luciferase modified RNA, 18 to 22 hours. On the procedure:
To evaluate using of 2′fluoro-modified mRNA in combination with other modification a series of mRNA were transcribed using either wild-type T7 polymerase (non-fluoro-containing compounds) or using mutant T7 polymerases (fluyoro-containing compounds) as described in Example 86. All modified mRNA were tested by in vitro transfection in HeLa cells.
(§1) The day before transfection, 20,000 HeLa cells (ATCC no. CCL-2; Manassas, Va.) were harvested by treatment with Trypsin-EDTA solution (LifeTechnologies, Grand Island, N.Y.) and seeded in a total volume of 100 ul EMEM medium (supplemented with 10% FCS and 1× Glutamax) per well in a 96-well cell culture plate (Corning, Manassas, Va.). The cells were grown at […] in 5% CO2 atmosphere overnight. […] Lipofectamine 2000 (LifeTechnologies, Grand Island, N.Y.) was used as transfection reagent and 0.2 ul were diluted in 10 ul final volume of OPTI-MEM. After 5 minutes of incubation at room temperature, both solutions were combined and incubated an additional 15 minute at room temperature. Then the 20 ul combined solution was added to the 100 ul cell culture medium containing the HeLa cells and incubated at room temperature.
(§2) After 18 to 22 hours of incubation cells expressing luciferase were lysed with 100 ul of Passive Lysis Buffer (Promega, Madison, Wis.) according to manufacturer instructions. Aliquots of the lysates were transferred to white opaque polystyrene 96-well plates (Corning, Manassas, Va.) and combined with 100 ul complete luciferase assay solution (Promega, Madison, Wis.). The lysate volumes were adjusted or diluted until no more than 2 mio relative light units (RLU) per well were detected for the strongest signal producing samples and the RLUs for each chemistry tested are shown in Table 26. The plate reader was a BioTek Synergy H1 (BioTek, Winooski, Vt.). The background signal of the plates without reagent was about 200 relative light units per well.

Data set [4] relates to Rabbit Reticulocyte Lysate. Briefly: In vitro screening in rabbit reticulocyte lysates, luciferase mRNA translation. The data set is classed as biochemical. The conditions noted are these: 250 ng luciferase mRNA, 60 minutes, 30° C. As for the experimental part: The diluted luciferase was added to 40 ul of freshly prepared Rabbit Reticulocyte Lysate and the in vitro translation reaction was done in a standard 1.5 mL polypropylene reaction tube (Thermo Fisher Scientific, Waltham, Mass.) at 30° C. in a dry heating block. The translation assay was done with the Rabbit Reticulocyte Lysate (nuclease-treated) kit (Promega, Madison, Wis.) according to the manufacturer's instructions. The reaction buffer was supplemented with a one-to-one blend of provided amino acid stock solutions devoid of either Leucine or Methionine resulting in a reaction mix containing sufficient amounts of both amino acids to allow effective in vitro translation.
After 60 minutes of incubation, the reaction was stopped by placing the reaction tubes on ice. Aliquots of the in vitro translation reaction containing luciferase modified RNA were transferred to white opaque polystyrene 96-well plates (Corning, Manassas, Va.) and combined with 100 ul complete luciferase assay solution (Promega, Madison, Wis.). The volumes of the in vitro translation reactions were adjusted or diluted until no more than 2 mio relative light units (RLUs) per well were detected for the strongest signal producing samples and the RLUs for each chemistry tested are shown in Table 20. The plate reader was a BioTek Synergy H1 (BioTek, Winooski, Vt.). The background signal of the plates without reagent was about 200 relative light units per well.

For data set [5], the system named is HeLa cells. Briefly: In vitro screening in HeLa cells, luciferase modified RNA. The conditions noted are these: HeLa cells, 83 ng luciferase modified RNA, 18 to 22 hours. The class given is cell-based, human. On the procedure: as §1
as §2, with “19.” for “26.”

For data set [6], the system named is HeLa cells. Briefly: G-CSF modified mRNA transfected in HeLa cells, G-CSF ELISA. The conditions noted are these: HeLa cells, combination chemistries, ELISA. The class given is cell-based, human. As for the experimental part:
To assess the activity of all our different chemical modifications in the context of a second open reading frame, we replicated experiments previously conducted using luciferase mRNA, with human G-CSF mRNA. […] The mutant T7 polymerase was obtained commercially (Durascribe® T7 Transcription kit (Cat. No. DS010925) (Epicentre®, Madison, Wis.).
The modified RNA in Tables 27 and 28 were transfected in vitro in HeLa cells or added to rabbit reticulysates (250 ng of modified mRNA) as indicated. […] In Table 27, “NT” means not tested.

Regarding `CCOCc1nc2c(N)nc3ccccc3c2n1CC(C)(C)O` [Compound R-848, reference compound], the “IFN-alpha: 3 Donor Average” value in data set [1] stood at 45 pg/mL. In addition, the “TNF-alpha: 2 Donor Average” value in data set [2] is 8,235 pg/ml.

As to “2′Fluoroguanine/pseudouridine: Luciferase mRNA (SEQ ID NO: 409) modified with the named combination”, in the data set on HeLa cells [3], the RLU stood at 218 RLU.

With “5-methylcytosine/pseudouridine, test A1: Luciferase mRNA (SEQ ID NO: 409) modified with 5-methylcytosine and pseudouridine; repeated tests”, the RLU was 349,398 RLU in data set [4]; 558,779 RLU in data set [4] (test A2); 413,535 RLU in data set [4] (test A3); 454,662 RLU in data set [4] (test B1); 487,805 RLU in data set [4] (test B2); 13,833 RLU with HeLa cells [3] (listed as 5-methylcytidine/pseudouridine, test A). Besides, the RLU in the data set with HeLa cells [3] (listed as 5-methylcytidine/pseudouridine, test B) was 115,401 RLU; in the data set with HeLa cells [5], 48,659 RLU; with HeLa cells [5] (test A2), 295,824 RLU; in the data set on HeLa cells [5] (test A3) it was 438,831 RLU; with HeLa cells [5] (test B1) it was 317,744 RLU; with HeLa cells [5] (test B2), 481,477 RLU.

On to “2′Fluoroguanine/5-methylcytidine/N1 methylpsuedouridine: Luciferase mRNA (SEQ ID NO: 409) modified with the named combination”, for which the RLU with HeLa cells [3] came out at 235 RLU.

B1: 5-methylcytidine/5-bromouridine: G-CSF mRNA (SEQ ID NO: 408) fully modified with the named combination (nucleic acid)
chain: GGGAAAUAAGAGAGAAAAGAAGAGUAAGAAGAAAUAUAAGAGCCACCAUGGCCGGUCCCGCGACCCAAAGCCCCAUGAAACUUAUGGCCCUGCAGUUGCUGCUUUGGCACUCGGCCCUCUGGACAGUCCAAGAAGCGACUCCUCUCGGACCUGCCUCAUCGUUGCCGCAGUCAUUCCUUUUGAAGUGUCUGGAGCAGGUGCGAAAGAUUCAGGGCGAUGGAGCCGCACUCCAAGAGAAGCUCUGCGCGACAUACAAACUUUGCCAUCCCGAGGAGCUCGUACUGCUCGGGCACAGCUUGGGGAUUCCCUGGGCUCCUCUCUCGUCCUGUCCGUCGCAGGCUUUGCAGUUGGCAGGGUGCCUUUCCCAGCUCCACUCCGGUUUGUUCUUGUAUCAGGGACUGCUGCAAGCCCUUGAGGGAAUCUCGCCAGAAUUGGGCCCGACGCUGGACACGUUGCAGCUCGACGUGGCGGAUUUCGCAACAACCAUCUGGCAGCAGAUGGAGGAACUGGGGAUGGCACCCGCGCUGCAGCCCACGCAGGGGGCAAUGCCGGCCUUUGCGUCCGCGUUUCAGCGCAGGGCGGGUGGAGUCCUCGUAGCGAGCCACCUUCAAUCAUUUUUGGAAGUCUCGUACCGGGUGCUGAGACAUCUUGCGCAGCCGUGAAGCGCUGCCUUCUGCGGGGCUUGCCUUCUGGCCAUGCCCUUCUUCUCUCCCUUGCACCUGUACCUCUUGGUCUUUGAAUAAAGCCUGAGUAGGAAG
modifications: 5-methylcytidine/5-bromouridine modified; Description of Artificial Sequence: Synthetic Transcript Sequence
On to B1, for which the “G-CSF protein (pg/ml) HeLa cells” value in the data set with HeLa cells [6] is 48,864 pg/ml. For the same molecule, in data set [1], the “IFN-alpha: 3 Donor Average” value was determined as 0 pg/mL. Besides, the “TNF-alpha: 2 Donor Average” value in data set [2] worked out at 270 pg/mL.

B2: N4-acetylcytidine/5-bromouridine: G-CSF mRNA (SEQ ID NO: 408) fully modified with the named combination (nucleic acid)
chain: GGGAAAUAAGAGAGAAAAGAAGAGUAAGAAGAAAUAUAAGAGCCACCAUGGCCGGUCCCGCGACCCAAAGCCCCAUGAAACUUAUGGCCCUGCAGUUGCUGCUUUGGCACUCGGCCCUCUGGACAGUCCAAGAAGCGACUCCUCUCGGACCUGCCUCAUCGUUGCCGCAGUCAUUCCUUUUGAAGUGUCUGGAGCAGGUGCGAAAGAUUCAGGGCGAUGGAGCCGCACUCCAAGAGAAGCUCUGCGCGACAUACAAACUUUGCCAUCCCGAGGAGCUCGUACUGCUCGGGCACAGCUUGGGGAUUCCCUGGGCUCCUCUCUCGUCCUGUCCGUCGCAGGCUUUGCAGUUGGCAGGGUGCCUUUCCCAGCUCCACUCCGGUUUGUUCUUGUAUCAGGGACUGCUGCAAGCCCUUGAGGGAAUCUCGCCAGAAUUGGGCCCGACGCUGGACACGUUGCAGCUCGACGUGGCGGAUUUCGCAACAACCAUCUGGCAGCAGAUGGAGGAACUGGGGAUGGCACCCGCGCUGCAGCCCACGCAGGGGGCAAUGCCGGCCUUUGCGUCCGCGUUUCAGCGCAGGGCGGGUGGAGUCCUCGUAGCGAGCCACCUUCAAUCAUUUUUGGAAGUCUCGUACCGGGUGCUGAGACAUCUUGCGCAGCCGUGAAGCGCUGCCUUCUGCGGGGCUUGCCUUCUGGCCAUGCCCUUCUUCUCUCCCUUGCACCUGUACCUCUUGGUCUUUGAAUAAAGCCUGAGUAGGAAG
modifications: N4-acetylcytidine/5-bromouridine modified; Description of Artificial Sequence: Synthetic Transcript Sequence
With B2, in the data set on HeLa cells [6], the “G-CSF protein (pg/ml) HeLa cells” value is on record as 211,591 pg/ml. Moreover, the “IFN-alpha: 3 Donor Average” value in data set [1] worked out at 44 pg/mL. Besides, the “TNF-alpha: 2 Donor Average” value in data set [2] came out at 403 pg/mL.
